Data reported in PubChem BioAssay AID1963854 (Molecular Pharmacology Branch, DTP, NCI, 2024).

Test system: 186277-243-T-J2-PDC complex spheroid viability
Experiment: Anticancer human tumor 186277-243-T-J2-PDC patient-derived colon adenocarcinoma cell line growth inhibition [POLQ]
Conditions: for IC50: curve of first compound; for viability, T/C: stronger effect = lower value
Procedure: Multicellular complex tumor spheroid response to Polymerase (POL) inhibitors (novobiocin, ART-558, RP6685) in combination with a variety of drugs and investigational agents in selected tumor cell lines
The POL inhibitors (novobiocin, ART-558, and RP6685) were evaluated both individually and in combination with standard of care and investigational anticancer small molecules within a complex spheroid model of solid tumors. . Complex spheroids include a stromal component modeled by human endothelial cells (HUVEC) and fibroblasts modeled by human mesenchymal stem cells (MSCs). The concentration ranges selected for each drug and investigational agent were based upon clinically achievable concentrations if the clinical Cmax of the agent was known.
Compounds. The drugs and investigational agents: novobiocin (NSC847541), ART-558 (NSC835418), RP-6685 (NSC848927), peposertib (NSC802822), ceralasertib (NSC780249), elimusertib (NSC800525), camonsertib (NSC841442), AZD-1390 (NSC803789), olaparib (NSC753686), talazoparib (NSC767125), rucaparib (NSC756644), sotorasib (NSC818433), MRTX-1133 (NSC836407), SN-38 (NSC673596), topotecan (NSC609699), epotoside (NSC141540), doxorubicin (NSC123127), gemcitabine (NSC613327), 5-fluorouracil (NSC19893), paclitaxel (NSC125973), vemurafenib (NSC761431), MSA-2 (NSC828583), SN-011 (NSC837082), adavosertib (NSC754352), prexasertib (NSC758257), carboplatin (NSC241240) and oxaliplatin (NSC266046), were obtained from the National Cancer Institute (NCI) Developmental Therapeutics Program Chemical Repository (21). The FDA-approved anticancer drug set is available from the Developmental Therapeutics Program at https://dtp.cancer.gov/organization/dscb/obtaining/. […] The stock solutions were prepared in dimethyl sulfoxide (DMSO, Sigma-Aldrich, St. Louis, MO, cat. D2650), except for the platinum compounds which were prepared in saline (Quality Biological, Gaithersburg, MD, cat. 114-055-101), at 800-fold the tested concentration and stored at -70 degrees C prior to their use. All drugs and investigational agents were tested over a range starting from a high concentration at or near the clinical Cmax and decreasing in half-log increments. If the clinical Cmax for an agent had not been determined, the highest concentration tested was 10 microM, except for SN-38, which was tested at a high concentration of 1 microM.
Cell Culture. All cells were maintained in an incubator at 37 degrees C and 5% CO2 with 95% humidity. The PDC lines were cultured according to standard operating procedures established by the NCI PDMR (https://pdmr.cancer.gov). Table 3 of the manuscript, lists the cell lines along with the number of the three cell types plated to form the mct-spheroids and media for tumor cell growth. After thawing, all PDC lines, except 997537-175-T-J1-PDC and 415267-285-R-J2-PDC, were cultured in Matrigel-coated flasks prepared with a working solution of 1X Ham's F-12 nutrient mix, without supplementation (Thermo Fisher Scientific, cat. 11765054), 100 U/mL penicillin-streptomycin (Thermo Fisher Scientific, cat. 15140122), and 2.5% Matrigel (Corning Inc., Corning, NY, cat. 354248) for the first three passages. The two PDC lines 997537-175-T-J1-PDC and 415267-285-R-J2-PDC were cultured on uncoated flasks. The 857933-349-R-J2-PDC line was cultured in 6C/Colon 1B media containing advanced DMEM/F-12 (Thermo Fisher Scientific, cat. 12634028), 10 mM HEPES (Thermo Fisher Scientific, cat. 15630080), 1X GlutaMAX supplement (Thermo Fisher Scientific, cat. 35050061), 0.1 mg/mL primocin (InvivoGen, San Diego, CA, cat. ant-pm-2), 10% defined fetal bovine serum, heat inactivated (HyClone Laboratories Inc., Logan, UT, cat. SH30070.03HI), 50% L-WRN conditioned media (ATCC, cat. CRL-3276), 1.25 mM N-Acetyl-L-cysteine (Sigma-Aldrich, cat. A9165), 10 mM nicotinamide (Sigma-Aldrich, cat. N0636), 1X B-27 supplement (Thermo Fisher Scientific, cat. 17504044), 1X N-2 supplement (Thermo Fisher Scientific, cat. […]
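Also: spheroids exposed to compounds for seven days.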
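For viability, T/C in this document: 100% = DMSO vehicle control viability.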

CC(=O)O[C@H]1C(=O)[C@@]2(C)[C@H]([C@H](OC(=O)c3ccccc3)[C@]3(O)C[C@H](OC(=O)[C@H](O)[C@@H](NC(=O)c4ccccc4)c4ccccc4)C(C)=C1C3(C)C)[C@]1(OC(C)=O)CO[C@@H]1C[C@@H]2O + COC1C(OC(N)=O)C(O)C(Oc2ccc3c(O)c(NC(=O)c4ccc(O)c(CC=C(C)C)c4)c(=O)oc3c2C)OC1(C)C
IC50 (second compound 0.0316 µM): < 9.49 nM
IC50 (second compound 0.1 µM): < 9.49 nM
IC50 (second compound 0.316 µM): < 9.49 nM
IC50 (second compound 1 µM): < 9.49 nM
IC50 (second compound 3.16 µM): < 9.49 nM
IC50 (second compound 10 µM): < 9.49 nM
viability, T/C (second compound 0.0316 µM, first compound 0.00949 µM): 18.8%
viability, T/C (second compound 0.0316 µM, first compound 0.03 µM): 6.51%
viability, T/C (second compound 0.0316 µM, first compound 0.0949 µM): 3.77%
viability, T/C (second compound 0.0316 µM, first compound 0.3 µM): 2.87%
viability, T/C (second compound 0.0316 µM, first compound 0.949 µM): 2.1%
viability, T/C (second compound 0.0316 µM, first compound 3 µM): 2.04%
viability, T/C (second compound 0.1 µM, first compound 0.00949 µM): 17.1%
viability, T/C (second compound 0.1 µM, first compound 0.03 µM): 5.55%
viability, T/C (second compound 0.1 µM, first compound 0.0949 µM): 3.16%
viability, T/C (second compound 0.1 µM, first compound 0.3 µM): 3.36%
viability, T/C (second compound 0.1 µM, first compound 0.949 µM): 2.39%
viability, T/C (second compound 0.1 µM, first compound 3 µM): 2.52%
viability, T/C (second compound 0.316 µM, first compound 0.00949 µM): 20.7%
viability, T/C (second compound 0.316 µM, first compound 0.03 µM): 5.59%
viability, T/C (second compound 0.316 µM, first compound 0.0949 µM): 3.78%
viability, T/C (second compound 0.316 µM, first compound 0.3 µM): 2.55%
viability, T/C (second compound 0.316 µM, first compound 0.949 µM): 2.77%
viability, T/C (second compound 0.316 µM, first compound 3 µM): 2.42%
viability, T/C (second compound 1 µM, first compound 0.00949 µM): 19%
viability, T/C (second compound 1 µM, first compound 0.03 µM): 5.89%
viability, T/C (second compound 1 µM, first compound 0.0949 µM): 3.25%
viability, T/C (second compound 1 µM, first compound 0.3 µM): 3.12%
viability, T/C (second compound 1 µM, first compound 0.949 µM): 2.59%
viability, T/C (second compound 1 µM, first compound 3 µM): 2.05%
viability, T/C (second compound 3.16 µM, first compound 0.00949 µM): 17%
viability, T/C (second compound 3.16 µM, first compound 0.03 µM): 6.12%
viability, T/C (second compound 3.16 µM, first compound 0.0949 µM): 3.2%
viability, T/C (second compound 3.16 µM, first compound 0.3 µM): 2.83%
viability, T/C (second compound 3.16 µM, first compound 0.949 µM): 3.06%
viability, T/C (second compound 3.16 µM, first compound 3 µM): 2.28%
viability, T/C (second compound 10 µM, first compound 0.00949 µM): 19.6%
viability, T/C (second compound 10 µM, first compound 0.03 µM): 5.72%
viability, T/C (second compound 10 µM, first compound 0.0949 µM): 3.65%
viability, T/C (second compound 10 µM, first compound 0.3 µM): 2.92%
viability, T/C (second compound 10 µM, first compound 0.949 µM): 2.88%
viability, T/C (second compound 10 µM, first compound 3 µM): 2.55%

CC1COCCN1c1cc(C2(O)CC3CCC(C2)O3)c2cnn(-c3ccn[nH]3)c2n1 (centres undefined) + COC1C(OC(N)=O)C(O)C(Oc2ccc3c(O)c(NC(=O)c4ccc(O)c(CC=C(C)C)c4)c(=O)oc3c2C)OC1(C)C
IC50 (second compound 0.0316 µM): 37.5 nM
IC50 (second compound 0.1 µM): 39.6 nM
IC50 (second compound 0.316 µM): 40.3 nM
IC50 (second compound 1 µM): 37.2 nM
IC50 (second compound 3.16 µM): 41.8 nM
IC50 (second compound 10 µM): < 31.6 nM
viability, T/C (second compound 0.0316 µM, first compound 0.0316 µM): 56.8%
viability, T/C (second compound 0.0316 µM, first compound 0.1 µM): 11%
viability, T/C (second compound 0.0316 µM, first compound 0.316 µM): 4.13%
viability, T/C (second compound 0.0316 µM, first compound 1 µM): 2.97%
viability, T/C (second compound 0.0316 µM, first compound 3.16 µM): 3.3%
viability, T/C (second compound 0.0316 µM, first compound 10 µM): 3.36%
viability, T/C (second compound 0.1 µM, first compound 0.0316 µM): 60%
viability, T/C (second compound 0.1 µM, first compound 0.1 µM): 8.95%
viability, T/C (second compound 0.1 µM, first compound 0.316 µM): 3.87%
viability, T/C (second compound 0.1 µM, first compound 1 µM): 2.7%
viability, T/C (second compound 0.1 µM, first compound 3.16 µM): 3.24%
viability, T/C (second compound 0.1 µM, first compound 10 µM): 3.18%
viability, T/C (second compound 0.316 µM, first compound 0.0316 µM): 60%
viability, T/C (second compound 0.316 µM, first compound 0.1 µM): 12.3%
viability, T/C (second compound 0.316 µM, first compound 0.316 µM): 4.98%
viability, T/C (second compound 0.316 µM, first compound 1 µM): 2.92%
viability, T/C (second compound 0.316 µM, first compound 3.16 µM): 3.45%
viability, T/C (second compound 0.316 µM, first compound 10 µM): 3.48%
viability, T/C (second compound 1 µM, first compound 0.0316 µM): 56.2%
viability, T/C (second compound 1 µM, first compound 0.1 µM): 12.9%
viability, T/C (second compound 1 µM, first compound 0.316 µM): 3.79%
viability, T/C (second compound 1 µM, first compound 1 µM): 2.66%
viability, T/C (second compound 1 µM, first compound 3.16 µM): 3.46%
viability, T/C (second compound 1 µM, first compound 10 µM): 3.76%
viability, T/C (second compound 3.16 µM, first compound 0.0316 µM): 63%
viability, T/C (second compound 3.16 µM, first compound 0.1 µM): 9.45%
viability, T/C (second compound 3.16 µM, first compound 0.316 µM): 4.01%
viability, T/C (second compound 3.16 µM, first compound 1 µM): 2.86%
viability, T/C (second compound 3.16 µM, first compound 3.16 µM): 3.33%
viability, T/C (second compound 3.16 µM, first compound 10 µM): 3.12%
viability, T/C (second compound 10 µM, first compound 0.0316 µM): 47.8%
viability, T/C (second compound 10 µM, first compound 0.1 µM): 7.48%
viability, T/C (second compound 10 µM, first compound 0.316 µM): 4.86%
viability, T/C (second compound 10 µM, first compound 1 µM): 2.78%
viability, T/C (second compound 10 µM, first compound 3.16 µM): 4.14%
viability, T/C (second compound 10 µM, first compound 10 µM): 3.73%
